# Tests used:
# Format in all cases: in vivo
# Abutilon theophrasti [1] = assay: Pre-emergence herbicidal action, ABUTH; details: dosage 320 g/ha, scored visually after 3 weeks vs untreated controls
# Text: (§1) 1. Pre-Emergence Herbicidal Action Against Harmful Plants Seeds of monocotyledonous and dicotyledonous weed plants and crop plants are laid out in sandy loam soil in wood-fiber pots and covered with soil. The compounds of the invention, formulated in the form of wettable powders (WP) or as emulsion concentrates (EC), are then applied to the surface of the covering soil in the form of an aqueous suspension or emulsion at a water application rate equating to […], with addition of 0.2% wetting agent. After the treatment, the pots are placed in a greenhouse and kept under good growth conditions for the trial plants. The damage to the test plants is scored visually after a test period of 3 weeks by comparison with untreated controls (herbicidal activity in percent (%): 100% activity=the plants have died, 0% activity=like control plants).
# (§2) For comparison, the herbicidal activity of numerous compounds according to the invention was tested with the structurally closest compounds known from the documents WO 2011/035874, WO 2012/028579 and WO 2012/126932, by the pre- and post-emergence method.
# Alopecurus myosuroides [2] = assay: Pre-emergence herbicidal action, ALOMY; details: dosage 320 g/ha, scored visually after 3 weeks vs untreated controls
# Text: as §1, §2
# Amaranthus retroflexus [3] = assay: Pre-emergence herbicidal action, AMARE; details: dosage 320 g/ha, scored visually after 3 weeks vs untreated controls
# Text: as §1, §2
# Avena fatua [4] = assay: Pre-emergence herbicidal action, AVEFA; details: dosage 320 g/ha, scored visually after 3 weeks vs untreated controls
# Text: as §1, §2
# Cyperus serotinus = assay: Pre-emergence herbicidal action, CYPES; details: dosage 320 g/ha, scored visually after 3 weeks vs untreated controls
# Text: as §1, §2
# Matricaria inodora = assay: Pre-emergence herbicidal action, MATIN; details: dosage 320 g/ha, scored visually after 3 weeks vs untreated controls
# Text: as §1, §2
# Setaria viridis [5] = assay: Pre-emergence herbicidal action, SETVI; details: dosage 320 g/ha, scored visually after 3 weeks vs untreated controls
# Text: as §1, §2
# Stellaria media [6] = assay: Pre-emergence herbicidal action, STEME; details: dosage 320 g/ha, scored visually after 3 weeks vs untreated controls
# Text: as §1, §2
# Viola tricolor [7] = assay: Pre-emergence herbicidal action, VIOTR; details: dosage 320 g/ha, scored visually after 3 weeks vs untreated controls
# Text: as §1, §2
# Abutilon theophrasti [8] = assay: Post-emergence herbicidal action, ABUTH; details: 80 g/ha, Table D
# Experimental: (§3) Seeds of monocotyledonous and dicotyledonous weed and crop plants are laid out in sandy loam soil in wood-fiber pots, covered with soil and cultivated in a greenhouse under good growth conditions. 2 to 3 weeks after sowing, the test plants are treated at the one-leaf stage. The compounds of the invention, formulated in the form of wettable powders (WP) or as emulsion concentrates (EC), are then sprayed onto the green parts of the plants in the form of an aqueous suspension or emulsion at a water application rate equating to […], with addition of 0.2% wetting agent. After the test plants have been left to stand in the greenhouse under optimal growth conditions for about 3 weeks, the action of the preparations is assessed visually in comparison to untreated controls (herbicidal action in percent (%): 100% activity=the plants have died, 0% activity=like control plants). […] At the same time, inventive compounds leave Gramineae crops such as barley, wheat, rye, millet/sorghum, corn or rice virtually undamaged when applied post-emergence, even at high active compound dosages. In addition, some substances are also harmless to dicotyledonous crops such as soya, cotton, oilseed rape, sugar beet or potatoes. Some of the compounds according to the invention have high selectivity and are therefore suitable for controlling unwanted vegetation in agricultural crops by the post-emergence method. The data of Tables C and D below illustrate, in an exemplary manner, the […] herbicidal action of the compounds according to the invention, the herbicidal activity being stated in percent.
# as §2
# Amaranthus retroflexus [9] = assay: Post-emergence herbicidal action, AMARE; details: 80 g/ha, Table D
# Experimental: as §3, §2
# Avena fatua [10] = assay: Post-emergence herbicidal action, AVEFA; details: 80 g/ha, Table C
# Experimental: as §3, §2
# Pharbitis purpureum = assay: Post-emergence herbicidal action, PHBPU; details: 80 g/ha, Table D
# Experimental: as §3, §2
# Setaria viridis [11] = assay: Post-emergence herbicidal action, SETVI; details: 80 g/ha, Table C
# Experimental: as §3, §2
# Stellaria media [12] = assay: Post-emergence herbicidal action, STEME; details: 80 g/ha, Table D
# Experimental: as §3, §2
# Viola tricolor [13] = assay: Post-emergence herbicidal action, VIOTR; details: 80 g/ha, Table D
# Experimental: as §3, §2
# ECHCG = assay: Post-emergence herbicidal action, ECHCG; details: 80 g/ha, Table C
# Experimental: as §3
# Alopecurus myosuroides [14] = assay: Post-emergence herbicidal action, ALOMY; details: 80 g/ha, Table C
# Experimental: as §3, §2
Structure (SMILES),herbicidal activity ABUTH (Abutilon theophrasti [1]) [%],herbicidal activity ALOMY (Alopecurus myosuroides [2]) [%],herbicidal activity AMARE (Amaranthus retroflexus [3]) [%],herbicidal activity AVEFA (Avena fatua [4]) [%],herbicidal activity CYPES (Cyperus serotinus) [%],herbicidal activity MATIN (Matricaria inodora) [%],herbicidal activity SETVI (Setaria viridis [5]) [%],Herbicidal activity STEME (Stellaria media [6]) [%],herbicidal activity VIOTR (Viola tricolor [7]) [%],herbicidal activity ABUTH (Abutilon theophrasti [8]) [%],herbicidal activity AMARE (Amaranthus retroflexus [9]) [%],herbicidal activity AVEFA (Avena fatua [10]) [%],Herbicidal activity PHBPU (Pharbitis purpureum) [%],herbicidal activity SETVI (Setaria viridis [11]) [%],Herbicidal activity STEME (Stellaria media [12]) [%],herbicidal activity VIOTR (Viola tricolor [13]) [%],Herbicidal activity ECHCG (ECHCG) [%],herbicidal activity ALOMY (Alopecurus myosuroides [14]) [%]
CCn1nnnc1NC(=O)c1ccc(C(F)F)c([S+](C)[O-])c1Cl (stereo not drawn) [Example 2-50],100,100,100,100,100,100,100,100,100,100,100,100,100,100,100,100,90,–
CCc1c(C(=O)Nc2nnc(C)o2)ccc(C(F)F)c1SC [Example 7-11],100,80,100,90,90,–,100,80,100,90,90,–,90,90,90,100,90,90
CCn1nnnc1NC(=O)c1ccc(C(F)F)c(S(=O)(=O)CC)c1F [Example 2-42],100,90,100,90,90,100,100,90,100,100,90,–,90,100,100,100,100,–
CCSc1c(C(F)F)ccc(C(=O)Nc2nnnn2CC)c1F [Example 2-40],100,–,100,–,–,100,100,100,100,100,100,–,90,100,100,100,100,80
CCn1nnnc1NC(=O)c1ccc(C(F)F)c(S(C)(=O)=O)c1F [Example 2-39],100,–,100,100,100,100,100,100,100,100,90,80,90,100,100,100,90,–
CCc1c(C(=O)Nc2nnnn2CC)ccc(C(F)F)c1[S+](C)[O-] (stereo not drawn) [Example 2-14],100,100,100,100,100,100,100,100,100,100,100,90,90,100,100,100,100,–

# Reference: patent US20230183193A1, “4-DIFLUOROMETHYL BENZOYL AMIDES WITH HERBICIDAL ACTION” (BAYER CROPSCIENCE AKTIENGESELLSCHAFT, priority 2017, published 2023)
